ChEMBL document CHEMBL5053469, “Heterocyclic GTP Cyclohydrolase 1 Inhibitors For the Treatment of Pain” (2012)

Key:
[1] = Inhibition of recombinant rat GCH1 assessed as reduction in 7,8-dihydroneoptrein 3'-triphosphate formation using GTP as substrate incubated for 15 mins by HPLC and fluorescence detection assay
[2] = Inhibition of rat aortic smooth muscle cell GCH1 expressed in Escherichia coli assessed as reduction in 7,8-dihydroneoptrein 3'-triphosphate formation using GTP as substrate incubated for 1 hr by LC/MS assay

IC50 [1] [µM]	IC50 [2] [µM]	SMILES
24	–	Nc1nc2[nH]c(S)nc2c(=O)[nH]1
–	89	CC1CCCCC1NC(=O)CSc1nc2c(O)nc(N)nc2[nH]1 (stereo not drawn)
–	127	Nc1nc(O)c2nc(SCC(=O)Nc3ccc(S(=O)(=O)N4CCCCCC4)cc3)[nH]c2n1
